Measured values: US7078422B2, “Activator for peroxisome proliferator-activated receptor” (Nippon Chemiphar Co., Ltd., priority 2001, dated 2006)

Legend:
GAL4-hPPARδ LBD = target: T1, GAL4-hPPARδ LBD (Homo sapiens, UniProt Q03181); assay: PPARδ transactivation activity (GAL4 chimeric receptor luciferase reporter in CV-1 cells); assay type: cell-based; details: tested compound at 10^−5 M, control 10^−4 M L-165041 set to 100%, DMSO alone 0%, 40 hours
T1 construct: A chimeric receptor expression plasmid (GAL4-hPPARδ LBD); expressed in transfected cells; host or cells: CV-1 cells
T1 sequence (Q03181 211-439 limits assumed): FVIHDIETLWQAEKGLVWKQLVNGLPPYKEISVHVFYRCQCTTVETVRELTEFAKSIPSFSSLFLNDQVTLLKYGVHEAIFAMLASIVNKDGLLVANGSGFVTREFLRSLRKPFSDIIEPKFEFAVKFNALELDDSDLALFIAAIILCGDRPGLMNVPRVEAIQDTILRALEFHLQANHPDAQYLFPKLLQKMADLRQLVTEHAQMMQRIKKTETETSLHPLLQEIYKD
Experimental: The PPARδ activating effect of the compound of the invention was determined by the following method:
A chimeric receptor expression plasmid (GAL4-hPPARδ LBD), a reporter plasmid (UASx4-TK-LUC) and β-galactosidase (β-GAL) are transfected into CV-1 cells by utilizing a lipofection reagent DMRIE-C (Life Technologies). Subsequently, it is incubated for 40 hours in the presence of a compound of the invention or a compound for comparison (GW-2433), and then the luciferase activity and β-GAL activity are measured on the soluble cells.
(§1) The luciferase activity is calibrated by the β-GAL activity. A relative ligand activity relating to PPARγ-activating effect is calculated in the same manner (see the below-described Example 3).
(§2) (1) Measurement of PPARγ, δ Transactivation Activity
(§3) Each of PPARγ & δ transactivation activities of the tested compound [compound of Example 1 and known PPARγ agonist (Rosiglitazone) and known PPARδ agonist (L-165041)] was measured in the manner described below.
CV-1 was obtained from Tohoku University Aging Medical Laboratory, Medical Cell Collection Center. All test compounds were dissolved in dimethylsulfoxide (DMSO) to give a test sample of 0.1% concentration. […]
The culture medium was removed and the cells were washed with PBS twice. […] (luciferase activity) was measured by means of MLR-100 type Microluminoreader (available from Corona Electrics Co., Ltd.). […]

GAL4-hPPARγ LBD = target: T2, GAL4-hPPARγ LBD (Homo sapiens, UniProt P37231); assay: PPARγ transactivation activity (GAL4 chimeric receptor luciferase reporter in CV-1 cells); assay type: cell-based; details: tested compound at 10^−5 M, control 10^−5 M Rosiglitazone set to 100%, DMSO alone 0%, 40 hours
T2 construct: Receptor expression plasmid (GAL4-hPPARγ LBD, GAL4-hPPARδ LBD); expressed in transfected cells; host or cells: CV-1 cells
T2 sequence (P37231 238-503 limits assumed): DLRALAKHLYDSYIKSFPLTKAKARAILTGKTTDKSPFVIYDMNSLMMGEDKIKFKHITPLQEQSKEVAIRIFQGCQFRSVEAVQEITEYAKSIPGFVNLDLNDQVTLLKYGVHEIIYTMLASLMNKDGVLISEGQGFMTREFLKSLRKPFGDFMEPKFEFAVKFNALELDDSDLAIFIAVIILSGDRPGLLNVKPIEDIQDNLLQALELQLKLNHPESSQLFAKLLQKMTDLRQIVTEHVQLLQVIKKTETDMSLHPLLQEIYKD
Experimental: as §1, §2, §3
CV-1 was obtained from Tohoku University Aging Medical Laboratory, Medical Cell Collection Center. All test compounds were dissolved in dimethylsulfoxide (DMSO) to give a test sample of 0.1% concentration.
Receptor expression plasmid (GAL4-hPPARγ LBD, GAL4-hPPARδ LBD), Luciferase expression plasmid (UASx4-TK-LUC), and β-galactosidase expression plasmid (βGAL) similar to Kliewer, S. A., et al., ((1992) Nature, 358:771–774) were employed. […]
The culture medium was removed and the cells were washed with PBS twice. […] (luciferase activity) was measured by means of MLR-100 type Microluminoreader (available from Corona Electrics Co., Ltd.). […] A relative PPAR activity was calculated based on the following: 0% (luciferase activity (control value) of cells treated with DMSO (0.1% concentration, solvent) alone), 100% (luciferase activity of cells treated with a control reagent (PPARγ: 10^−5 M Rosiglitazone, PPARδ: 10^−4 M L-165041)).

CC(C)c1oc(-c2ccccc2Cl)nc1CCCC(=O)c1ccc(CC(=O)O)cc1 [Example 1, [4-[4-[2-(2-Chlorophenyl)-5-isopropyloxazol-4-yl]butyryl]phenyl]acetic acid]
PPAR activity (relative value) for PPARδ (GAL4-hPPARδ LBD): 93±3% | PPAR activity (relative value) for PPARγ (GAL4-hPPARγ LBD): 50%
